# Patent publication US20230172203A1, “PLANT METABOLISM PROMOTING COMPOSITIONS AND METHODS OF USE” (Panoptic Ag Solutions LLC, priority 2021, published 2023)
# How the values were obtained:
# Assay type in all cases: in vivo
# [1] = tested on: Mature apple trees; assay: 2021 New York Replicated Apple Field Trial
# Procedure: Mature apple trees (n=6) were treated with a 20% aqueous L-theanine solution at 1 pint per acre with application timings at Pink Bud, Bloom, Petal Fall, and every 2 weeks from Petal Fall until harvest.
# [2] = tested on: Butterbaby variety squash plant seedlings; assay: 2021 Greenhouse Squash Trial
# Description: (§1) The base formulation used in greenhouse trials was an aqueous solution of L-theanine (20% by weight). The base formulation was further diluted with water as detailed for each trial. Butterbaby variety squash plant seedlings (n=4/treatment) were planted in commercial potting soil and then were transplanted to 3-gallon pots. L-theanine treatment was applied at the equivalent of 1 pint in 100 gallons of water (125 ppm) and sprayed till runoff. Two treatment applications were made to the plants approximately 14 days apart.
# [3] = tested on: Soybean seed; assay: 2020 Greenhouse Soybean Seed Treatment Trial
# Procedure: The base formulation used in greenhouse trials was an aqueous solution of L-theanine (20% by weight). The base formulation was further diluted with water as detailed for each trial. Soybean seed (n=32/treatment) was treated with an aqueous solution of L-theanine at a rate of 1.0 fl. oz. per hundredweight of soybean seed. The seeds were planted in commercial potting soil in 1-gallon pots. The plants were grown for 21 days before they were harvested.
# [4] = tested on: Soybean plants; assay: 2021 Greenhouse Soybean Trial (soil application)
# Procedure: The base formulation used in greenhouse trials was an aqueous solution of L-theanine (20% by weight). The base formulation was further diluted with water as detailed for each trial. Soybean seeds (n=28/treatment) were planted in commercial potting soil in 1-gallon pots. Approximately 14 days after seedling emergence, an aqueous L-theanine solution was mixed into water at a rate of 0.2 mL per 1000 mL water. The resulting solution was applied to the soil of the pots at a rate of 50 mL per plant. Plants were grown for an additional 14 days then harvested.
# [5] = tested on: CalWonder variety pepper plant seedlings; assay: 2021 Greenhouse Bell Pepper Trial
# Description: as §1, with “CalWonder” for “Butterbaby”, “pepper” for “squash”
# [6] = tested on: Rutgers variety tomato plant seedlings; assay: 2021 Greenhouse Tomato Trial
# Description: as §1, with “Rutgers” for “Butterbaby”, “tomato” for “squash”, “(n=6/treatment)” for “(n=4/treatment)”, “3 gallon” for “3-gallon”
# [7] = tested on: Mature cherry trees; assay: 2022 Replicated California Cherry Trial
# Procedure: Mature cherry trees (n=6) were treated with a 10% aqueous L-theanine solution at 1 pint per acre with application timings at Early Bloom, Petal Fall, and Early Fruit set. The trial was maintained at grower standard fertilizer and pest management throughout the course of the trial.
# [8] = tested on: Dwarf sunflower; assay: 2021 Greenhouse Sunflower Trial
# Description: The base formulation used in greenhouse trials was an aqueous solution of L-theanine (20% by weight). The base formulation was further diluted with water as detailed for each trial. Dwarf sunflower seeds (n=9/treatment) were planted in commercial potting soil in 1-gallon pots. Approximately 14 days after emergence, an L-theanine solution was applied to the foliage at the equivalent of 8 fl. oz./acre in 50 gallons of water (125 ppm) and sprayed till run off. One application was made.
# [9] = tested on: corn; assay: 2021 York, NE Corn Replicated Field Trial; details: in-furrow application 8 fl. oz. per acre; V5 growth stage; vs untreated plant
# Description: FIG. 1 is a photo from a 2021 York, NE Corn Trial. An aqueous solution of L-theanine was applied to the corn as an in-furrow application at a rate of 8 fl. oz. per acre. The pictures from the trial were taken at the V5 (5th Leaf) growth stage.
# [10] = 20% aqueous solution at 1 pint per acre, Pink Bud, Bloom, Petal Fall, then every 2 weeks until harvest
# [11] = foliar spray 125 ppm till runoff, two applications ~14 days apart
# [12] = vs untreated check, 125 ppm foliar, two applications
# [13] = over the untreated check, seed treatment
# [14] = seed treatment 1.0 fl. oz. per hundredweight of seed, harvested after 21 days
# [15] = 0.2 mL per 1000 mL water, 50 mL per plant, harvested 14 days later
# [16] = foliar, 8 fl. oz./acre in 50 gallons of water (125 ppm), one application
# [17] = over the untreated check, 125 ppm foliar, one application
structure (smiles),measurement,setting,value
CCNC(=O)CC[C@H](N)C(=O)O [L-theanine],Defects,[1]; [10],114.5 a bu/acre
same,Salable Yield,[1]; [10],837.8 a bu/acre
same,Total Yield,[1]; [10],952.3 a bu/acre
same,"increase in salable yield, percent",[1]; vs untreated check,12.5%
same,number of defective fruits (in words),[1]; vs untreated check,reduced the number of defective fruits
same,increase in salable yield,"[1]; vs untreated check, 1 bushel=48 lbs",93.1 bushels/acre
same,"plant productivity, flowering and fruit set (in words)","[2]; 125 ppm foliar, two applications","improved plant productivity, early flowering, and early fruit set"
same,Fruit/Vine (count),[2]; [11],4.25 a count
same,Vine Length,[2]; [11],55.00 a in
same,increase in fruit per vine,[2]; [12],2.75 fruit
same,"increase in fruit per vine, percent",[2]; [12],183.3%
same,increase in vine length,[2]; [12],11.25 in
same,"increase in vine length, percent",[2]; [12],25.7%
same,increase in biomass,[3]; [13],0.43 g
same,"increase in biomass, percent",[3]; [13],8.0%
same,increase in root length,[3]; [13],94.4 cm
same,"increase in root length, percent",[3]; [13],8.1%
same,increase in root tips,[3]; [13],763.4
same,"increase in root tips, percent",[3]; [13],21.0%
same,Plant Biomass,[3]; [14],5.80 a g
same,Root Length,[3]; [14],1263.7 a cm
same,Root Tips (count),[3]; [14],4392.0 a count
same,Plant Biomass,[4]; [15],7.44 a g
same,Root Length,[4]; [15],1631.4 a cm
same,increase in root length,[4]; above the untreated check,66.4 cm
same,"increase in root length, percent",[4]; above the untreated check,4.2%
same,increase in soybean biomass,[4]; above the untreated check,1.3 g
same,"increase in soybean biomass, percent",[4]; above the untreated check,20.4%
same,Basal Diameter,[5]; [11],5.55 a mm
same,Fruit (count),[5]; [11],5.5 a count
same,Plant Height,[5]; [11],26 a in
same,improvement in basal diameter,[5]; [12],1.82 mm
same,"improvement in basal diameter, percent",[5]; [12],48.8%
same,improvement in fruit count,[5]; [12],3.0
same,"improvement in fruit count, percent",[5]; [12],120%
same,Basal Diameter,[6]; [11],6.75 a mm
same,Fruit (count),[6]; [11],8.25 a count
same,Leaf (count),[6]; [11],5 a count
same,Plant Height,[6]; [11],21.25 a in
same,increase in basal diameter,[6]; [12],1.1 mm
same,"increase in basal diameter, percent",[6]; [12],19.5%
same,increase in fruit count,[6]; [12],3.75
same,"increase in fruit count, percent",[6]; [12],83.3%
same,increase in plant height,[6]; [12],2.5 in
same,"increase in plant height, percent",[6]; [12],13.3%
same,Yield,"[7]; 10% aqueous solution at 1 pint per acre, Early Bloom, Petal Fall, Early Fruit set",70.3 a Boxes/Acre
same,increase in yield,[7]; over the untreated check,12.8 boxes/acre
same,"increase in yield, percent",[7]; over the untreated check,22.3%
same,Root Length,[8]; [16],1765.1 a cm
same,Root Surface Area,[8]; [16],491.1 a cm^2
same,Root Volume,[8]; [16],10.9 a cm^3
same,Plant Biomass,"[8]; foliar, 8 fl. oz./acre in 50 gallons of water (125 ppm), one application ~14 days after emergence",38.63 a g
same,increase in biomass,[8]; [17],4.4 grams
same,"increase in biomass, percent",[8]; [17],12.8%
same,increase in root length,[8]; [17],70.5 cm
same,"increase in root length, percent",[8]; [17],4.2%
same,increase in root surface area,[8]; [17],61.5 cm^2
same,"increase in root surface area, percent",[8]; [17],14.3%
same,increase in root volume,[8]; [17],2.2 cm^3
same,"increase in root volume, percent",[8]; [17],25.3%
same,"root biomass development and stalk girth (FIG. 1, in words)",[9],increases in root biomass development and stalk girth
